Experimental data reported in patent publication US20250204247A1, “DISPLAY APPARATUS AND ELECTRONIC DEVICE” (SEMICONDUCTOR ENERGY LABORATORY CO., LTD., priority 2022, published 2025).

Assay: Solubility test in water (visual inspection for an insoluble residue)
Type: physicochemical
Conditions: for solubility in water relative to the solubility of hpp2Py in water: fraction of the hpp2Py solubility in water
Procedure: In a sample bottle (capacity: 20 mL) was put 1.16 mg of 1,1′-(9,9′-spirobi[9H-fluorene]-2,7-diyl)bis(1,3,4,6,7,8-hexahydro-2H-pyrimido[1,2-a]pyrimidine) (abbreviation: 2,7hpp2SF), and 0.5 mL of water was added thereto. This mixture was irradiated with ultrasonic waves for one minute. A precipitated white powder was found by visual inspection for an insoluble residue. After further addition of 0.5 mL of water and one-minute ultrasonic wave irradiation, a precipitated white powder was found by visual inspection. This procedure was repeatedly executed until the dissolution was confirmed by visual inspection.
The precipitated white powder was found until the total amount of water reached 3.0 mL. After further addition of 0.5 mL of water and ultrasonic wave irradiation, no precipitated white powder was found.
In a sample bottle (capacity: 100 mL) was put 1.08 mg of 1-(9,9′-spirobi[9H-fluorene]-2-yl)-1,3,4,6,7,8-hexahydro-2H-pyrimido[1,2-a]pyrimidine) (abbreviation: 2hppSF), and 50 mL of water was added thereto. A precipitated white powder was found by visual inspection for an insoluble residue. When 10 mL of water was further added, the precipitated white powder was not observed by visual inspection.
In a sample bottle (capacity: 5 mL) was put 50.2 mg of 1,1′-pyridine-2,6-diyl-bis(1,3,4,6,7,8-hexahydro-2H-pyrimido[1,2-a]pyrimidine) (abbreviation: hpp2Py), and 1.0 mL of water was added thereto. The dissolution was found by visual inspection for an insoluble residue.

weight which can be dissolved in 1.0 mL of water (per 1.0 mL of water, dissolution confirmed by visual inspection)	solubility in water relative to the solubility of hpp2Py in water	SMILES
greater than or equal to 50.2 mg		c1cc(N2CCCN3CCCN=C32)nc(N2CCCN3CCCN=C32)c1 [hpp2Py, 1,1′-pyridine-2,6-diyl-bis(1,3,4,6,7,8-hexahydro-2H-pyrimido[1,2-a]pyrimidine), reference compound]
	less than or equal to 1/10	c1ccc2c(c1)-c1ccccc1C21c2cc(N3CCCN4CCCN=C43)ccc2-c2ccc(N3CCCN4CCCN=C43)cc21 [2,7hpp2SF, 1,1′-(9,9′-spirobi[9H-fluoren]-2,7-diyl)bis(1,3,4,6,7,8-hexahydro-2H-pyrimido[1,2-a]pyrimidine)]
	less than or equal to 1/10	c1ccc2c(c1)-c1ccccc1C21c2ccccc2-c2ccc(N3CCCN4CCCN=C43)cc21 [2hppSF, 1-(9,9′-spirobi[9H-fluoren]-2-yl)-1,3,4,6,7,8-hexahydro-2H-pyrimido[1,2-a]pyrimidine]
